# Assay results: patent US12612384B2, “Heterocyclic CYP4A inhibitor compounds and compositions thereof” (MBD CO., LTD., priority 2021, dated 2026)
# Target: T1, CYP4A (Homo sapiens, UniProt Q02928)
# T1 construct: purchased; host or cells: bacterial membranes ('bactosome')
# T1 sequence (Q02928 5-519): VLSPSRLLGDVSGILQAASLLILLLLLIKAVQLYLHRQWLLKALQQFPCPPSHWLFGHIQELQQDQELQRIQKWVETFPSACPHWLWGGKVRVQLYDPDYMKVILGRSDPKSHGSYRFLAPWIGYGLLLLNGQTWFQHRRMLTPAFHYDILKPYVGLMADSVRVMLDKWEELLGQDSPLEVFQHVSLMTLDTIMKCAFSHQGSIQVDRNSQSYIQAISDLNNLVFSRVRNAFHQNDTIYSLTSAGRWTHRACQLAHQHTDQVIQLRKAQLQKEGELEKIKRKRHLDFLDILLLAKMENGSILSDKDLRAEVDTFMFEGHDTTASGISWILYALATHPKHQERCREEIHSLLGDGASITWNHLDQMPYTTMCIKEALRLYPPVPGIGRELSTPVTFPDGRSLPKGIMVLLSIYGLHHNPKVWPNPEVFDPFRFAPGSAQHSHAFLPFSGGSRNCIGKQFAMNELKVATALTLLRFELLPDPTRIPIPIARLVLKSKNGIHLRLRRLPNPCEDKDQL
# Test: CYP4A enzyme assay (luminescence, Luciferin-ME)
# Type: biochemical
# Settings: Compound concentration 5 μM; 50%-70%; read-out: % Inhibition 50%-70%
# Method: The CYP4A inhibitory activity of the above compounds of the examples was measured. The reagents used in the experiment were commercially available, and were prepared and used when necessary. The device used for measuring activity was SpectraMax of MOLECULAR DEVICES.
# CYP4A bactosome and the compounds to be evaluated (5 μM) were each diluted in assay buffer (100 mM KPO4, 0.1% BSA, 1 mM DTT) and mixed in a 384 well plate (white opaque polystyrene nontreated flat-bottom well), and reaction was carried out at room temperature for 15 minutes. To induce CYP4A reaction, 5 mM Luciferin-ME, NADPH Regeneration system (10× sol. A, 20× sol. B in assay buffer, Cat. Number: V865B, Promega) were sequentially added and mixed, and the reaction was carried out at room temperature for 30 minutes. Then, Luciferin Detection reagent was added thereto and reacted at room temperature for 15 minutes to stop the CYP4A reaction and induce a luminescence reaction. Finally, after measuring the luminescence value using a microplate reader, the inhibition of CYP4A activity by the compounds was evaluated by comparing the luminescence value from each well.
row,Compound,inhibition at 5 µM
1,"O=C(C1CN(S(=O)(=O)c2ccc(Br)cc2)C1)N1CCN(c2ccnc3cc(F)ccc23)CC1 [Example 68, (1-((4-bromophenyl)sulfonyl)azetidin-3-yl)(4-(7-fluoroquinolin-4-yl)piperazin-1-yl)methanone]",50 to 70%
2,"Cc1ccc(S(=O)(=O)N2CCCC(C(=O)N3CCN(c4ncnc5ccccc45)CC3)C2)cc1 (stereo not drawn) [Example 75, (4-(quinazolin-4-yl)piperazin-1-yl)(1-tosylpiperidin-3-yl)methanone]",50 to 70%
3,"CC(=O)Nc1ccc(S(=O)(=O)N2CCCC(C(=O)N3CCN(c4nc(C)nc5ccccc45)CC3)C2)cc1 (stereo not drawn) [Example 79, N-(4-(3-(1-(2-methylquinazolin-4-yl)piperazine-4-carbonyl)piperidin-1-ylsulfonyl)phenyl)acetamide]",50 to 70%
4,"Cc1nc(N2CCN(C(=O)C3CCCN(S(=O)(=O)c4ccc(F)cc4)C3)CC2)c2ccccc2n1 (stereo not drawn) [Example 81, (1-(4-fluorophenylsulfonyl)piperidin-3-yl)(4-(2-methylquinazolin-4-yl)piperazin-1-yl)methanone]",50 to 70%
5,"Cc1nc(N2CCN(C(=O)C3CCCN(S(=O)(=O)c4ccc(N(C)C)cc4)C3)CC2)c2ccccc2n1 (stereo not drawn) [Example 82, (1-(4-(dimethylamino)phenylsulfonyl)piperidin-3-yl)(4-(2-methylquinazolin-4-yl)piperazin-1-yl)methanone]",50 to 70%
6,"O=C(C1CCCN(C(=O)C2CCCCC2)C1)N1CCN(c2ccnc3cc(Cl)ccc23)CC1 (stereo not drawn) [Example 86, (4-(7-chloroquinolin-4-yl)piperazin-1-yl)(1-(cyclohexylcarbonyl)piperidin-3-yl)methanone]",50 to 70%

# Same assay, conditions: Compound concentration 5 μM; 70%-90%; read-out: % Inhibition 70%-90%
row,Compound,inhibition at 5 µM
1,"O=C(C1CCN(S(=O)(=O)c2ccc(Br)cc2)CC1)N1CCN(c2ccnc3ccccc23)CC1 [Example 63, (1-((4-bromophenyl)sulfonyl)piperidin-4-yl)(4-(quinolin-4-yl)piperazin-1-yl)methanone]",70 to 90%
2,"Nc1cccc(S(=O)(=O)N2CC(C(=O)N3CCN(c4ccnc5cc(F)ccc45)CC3)C2)c1 [Example 72, (1-((3-aminophenyl)sulfonyl)azetidin-3-yl)(4-(7-fluoroquinolin-4-yl)piperazin-1-yl)methanone]",70 to 90%
3,"CC(=O)Nc1ccc(S(=O)(=O)N2CCCC(C(=O)N3CCN(c4ncnc5ccccc45)CC3)C2)cc1 (stereo not drawn) [Example 74, N-(4-((3-(4-(quinazolin-4-yl)piperazine-1-carbonyl)piperidin-1-yl)sulfonyl)phenyl)acetamide]",70 to 90%
4,"O=C(C1CCCN(S(=O)(=O)c2ccc(F)cc2)C1)N1CCN(c2ncnc3ccccc23)CC1 (stereo not drawn) [Example 76, (1-((4-fluorophenyl)sulfonyl)piperidin-3-yl)(4-(quinazolin-4-yl)piperazin-1-yl)methanone]",70 to 90%
5,CN(C)c1ccc(S(=O)(=O)N2CCCC(C(=O)N3CCN(c4ncnc5ccccc45)CC3)C2)cc1 (stereo not drawn) [Example 77],70 to 90%
6,"O=C(C1CCCN(S(=O)(=O)c2ccc(O)cc2)C1)N1CCN(c2ncnc3ccccc23)CC1 (stereo not drawn) [Example 78, (1-((4-hydroxyphenyl)sulfonyl)piperidin-3-yl)(4-(quinazolin-4-yl)piperazin-1-yl)methanone]",70 to 90%
7,"O=C(c1ccc(F)cc1)N1CCCC(C(=O)N2CCN(c3ccnc4cc(Cl)ccc34)CC2)C1 (stereo not drawn) [Example 84, (4-(7-chloroquinolin-4-yl)piperazin-1-yl)(1-(4-fluorophenylcarbonyl)piperidin-3-yl)methanone]",70 to 90%
8,"O=C(c1ccccc1)N1CCCC(C(=O)N2CCN(c3ccnc4cc(Cl)ccc34)CC2)C1 (stereo not drawn) [Example 85, (4-(7-chloroquinolin-4-yl)piperazin-1-yl)(1-(phenylcarbonyl)piperidin-3-yl)methanone]",70 to 90%
9,"O=C(c1ccncc1)N1CCCC(C(=O)N2CCN(c3ccnc4cc(Cl)ccc34)CC2)C1 (stereo not drawn) [Example 87, (4-(7-chloroquinolin-4-yl)piperazin-1-yl)(1-(pyridine-4-ylcarbonyl)piperidin-3-yl)methanone]",70 to 90%

# Same assay, conditions: Compound concentration 5 μM; Greater than 90%; read-out: % Inhibition Greater than 90%
row,Compound,inhibition at 5 µM
1,"O=C(C1CCN(S(=O)(=O)c2ccc(-c3cccnc3)cc2)CC1)N1CCN(c2ccnc3cc(F)ccc23)CC1 [Example 58, (4-(7-fluoroquinolin-4-yl)piperazin-1-yl)(1-((4-(pyridin-3-yl)phenyl)sulfonyl)piperidin-4-yl)methanone]",> 90%
2,"O=C(C1CCCN(S(=O)(=O)c2ccc(Cl)nc2)C1)N1CCN(c2ccnc3cc(F)ccc23)CC1 (stereo not drawn) [Example 59, (1-((6-chloropyridin-3-yl)sulfonyl)piperidin-3-yl)(4-(7-fluoroquinolin-4-yl)piperazin-1-yl)methanone]",> 90%
3,"CC(=O)Nc1ccc(S(=O)(=O)N2CCCC(C(=O)N3CCN(c4ccnc5cc(F)ccc45)CC3)C2)cn1 (stereo not drawn) [Example 60, N-(5-((3-(4-(7-fluoroquinolin-4-yl)piperazine-1-carbonyl)piperidin-1-yl)sulfonyl)pyridin-2-yl)acetamide]",> 90%
4,"O=C(C1CCCN(S(=O)(=O)c2ccc(N3CCOCC3)nc2)C1)N1CCN(c2ccnc3cc(F)ccc23)CC1 (stereo not drawn) [Example 61, (4-(7-fluoroquinolin-4-yl)piperazin-1-yl)(1-((6-morpholinopyridin-3-yl)sulfonyl)piperidin-3-yl)methanone]",> 90%
5,"CN1CCN(c2ccc(S(=O)(=O)N3CCCC(C(=O)N4CCN(c5ccnc6cc(F)ccc56)CC4)C3)cn2)CC1 (stereo not drawn) [Example 62, (4-(7-fluoroquinolin-4-yl)piperazin-1-yl)(1-((6-(4-methylpiperazin-1-yl)pyridin-3-yl)sulfonyl)piperidin-3-yl)methanone]",> 90%
6,"O=C(C1CCN(S(=O)(=O)c2ccc(-c3ccncc3)cc2)CC1)N1CCN(c2ccnc3ccccc23)CC1 [Example 64, (1-((4-(pyridin-4-yl)phenyl)sulfonyl)piperidin-4-yl)(4-(quinolin-4-yl)piperazin-1-yl)methanone]",> 90%
7,"CC(=O)Nc1ccc(S(=O)(=O)N2CC(C(=O)N3CCN(c4ccnc5cc(F)ccc45)CC3)C2)cc1 [Example 65, N-(4-((3-(4-(7-fluoroquinolin-4-yl)piperazine-1-carbonyl)azetidin-1-yl)sulfonyl)phenyl)acetamide]",> 90%
8,"O=C(C1CN(S(=O)(=O)c2ccc(O)cc2)C1)N1CCN(c2ccnc3cc(F)ccc23)CC1 [Example 66, (4-(7-fluoroquinolin-4-yl)piperazin-1-yl)(1-((4-hydroxyphenyl)sulfonyl)azetidin-3-yl)methanone]",> 90%
9,"O=C(C1CN(S(=O)(=O)c2ccc([N+](=O)[O-])cc2)C1)N1CCN(c2ccnc3cc(F)ccc23)CC1 [Example 67, (4-(7-fluoroquinolin-4-yl)piperazin-1-yl)(1-((4-nitrophenyl)sulfonyl)azetidin-3-yl)methanone]",> 90%
10,"O=C(C1CN(S(=O)(=O)c2ccc(-c3ccncc3)cc2)C1)N1CCN(c2ccnc3cc(F)ccc23)CC1 [Example 69, (4-(7-fluoroquinolin-4-yl)piperazin-1-yl)(1-((4-(pyridin-4-yl)phenyl)sulfonyl)azetidin-3-yl)methanone]",> 90%
11,"CC(=O)Nc1ccc(S(=O)(=O)N2CC(C(=O)N3CCN(c4ccnc5ccccc45)CC3)C2)cc1 [Example 70, N-(4-((3-(4-(quinolin-4-yl)piperazine-1-carbonyl)azetidin-1-yl)sulfonyl)phenyl)acetamide]",> 90%
12,"O=C(C1CN(S(=O)(=O)c2cccc([N+](=O)[O-])c2)C1)N1CCN(c2ccnc3cc(F)ccc23)CC1 [Example 71, (4-(7-fluoroquinolin-4-yl)piperazin-1-yl)(1-((3-nitrophenyl)sulfonyl)azetidin-3-yl)methanone]",> 90%
13,"CC(=O)Nc1cccc(S(=O)(=O)N2CC(C(=O)N3CCN(c4ccnc5cc(F)ccc45)CC3)C2)c1 [Example 73, N-(3-((3-(4-(7-fluoroquinolin-4-yl)piperazine-1-carbonyl)azetidin-1-yl)sulfonyl)phenyl)acetamide]",> 90%
14,"CC(=O)Nc1ccc(C(=O)N2CCCC(C(=O)N3CCN(c4ccnc5cc(Cl)ccc45)CC3)C2)cc1 (stereo not drawn) [Example 83, N-(4-(3-(1-(7-chloroquinolin-4-yl)piperazine-4-carbonyl)piperidine-1-carbonyl)phenyl)acetamide]",> 90%

# Same assay, conditions: Compound concentration 5 μM; Less than 50%; read-out: % Inhibition Less than 50%
row,Compound,inhibition at 5 µM
1,"Cc1ccc(S(=O)(=O)N2CCCC(C(=O)N3CCN(c4nc(C)nc5ccccc45)CC3)C2)cc1 (stereo not drawn) [Example 80, (4-(2-methylquinazolin-4-yl)piperazin-1-yl)(1-tosylpiperidin-3-yl)methanone]",< 50%
